Source: ChEMBL document CHEMBL4715697, “Synthesis and biological activity of benzamide DNA minor groove binders” (2016)

How the values were obtained:
[1] = test system: NCI-H522; assay: Growth inhibition of human NCI-H522 cells assessed as cell growth at 100 uM incubated for 48 hrs by sulforhodamine B assay relative to control; assay type: functional; details: read-out: Activity
[2] = test system: HOP-92; assay: Growth inhibition of human HOP-92 cells assessed as cell growth at 10 uM incubated for 48 hrs by sulforhodamine B assay relative to control; assay type: functional; details: read-out: Activity

Row | Compound | growth at 100 µM [1] [%] | growth at 10 µM [2] [%]
1 | CC(=O)Nc1cc(CCl)cc(NC(=O)c2ccc(C(=O)Nc3cccc(NC(=O)CCCN(C)C)c3)cc2)c1 | 83 | 
2 | CC(=O)Nc1cc(CO[Si](C)(C)C(C)(C)C)cc(NC(=O)c2ccc(C(=O)Nc3cccc(NC(=O)CCCN(C)C)c3)cc2)c1 | 86 | 
3 | CC(=O)Nc1cc(CO)cc(NC(=O)c2ccccc2)c1 |  | 96.3
